# Assay results reported in publication PMC5571359, “Screening the Medicines for Malaria Venture Pathogen Box across Multiple Pathogens Reclassifies Starting Points for Open-Source Drug Discovery” (Antimicrobial Agents and Chemotherapy, 2017).
# Read-outs that look alike come from different tables or passages of the source.
# Legend:
# HepG2 = conditions: cited from earlier work
# P. falciparum ABS = conditions: P. falciparum 3D7; ref PBox supporting information; read-out: Pf 3D7 Pbox IC50; cited from earlier work
# HEK293 cells = experiment: HEK293 resazurin cell cytotoxicity assay; conditions: Homo sapiens, HEK293, read-out: HEK % Inhibition 20uM/IC50 Discovery Biology (IA)
# [1] = HepG2, ref PBox supporting information
# [2] = ref Pbox supporting information
# [3] = read-out: HepG2 PBox CC50 µM, HepG2 cytotoxicity, ref PBox supporting information
# [4] = read-out: HepG2 PBox CC50, HepG2, ref PBox supporting information
Compound,CC50 (HepG2; [3]) [µM],also measured
CC(C)C(Oc1cccc2ccccc12)C(=O)O (stereo not drawn) [MMV676191],,HepG2 PBox CC20 (HepG2; [1]): >80 µM
O=C(c1ccc(F)cc1)N(CCNc1ccccc1)c1ccccc1 [MMV676204],,HepG2 PBox CC20 μMc (HepG2; [2]): 18.5 µM
Nc1ncc(Br)cc1-c1nc2cc(Cl)cnc2[nH]1 [MMV676358],,IC50 (P. falciparum ABS): 1.5 µM; IC50 (HEK293 cells): > 20 µM
Brc1c(-c2ccc3c(c2)OCO3)nc2ncccn12 [MMV676377],> 100,
COc1cccc(OCC(=O)c2ccc(Br)cc2)c1 [MMV676379],> 100,
Cn1ncc2c(N3CCOCC3)nc(NCCc3c[nH]c4ccccc34)nc21 [MMV676382],,HepG2 PBox CC20 μMc (HepG2; [2]): 4.6 µM
N#Cc1nc(-c2ccccc2F)oc1NCCc1ccccc1 [MMV676384],> 100,
Cc1cccc(Cn2ccc(NC(=O)c3ccc4c(c3)OCO4)n2)c1 [MMV676386],> 100,
O=C(c1[nH]nc2c1CCCC2)N1CCN(Cc2ccc3c(c2)OCO3)CC1 [MMV676389],> 100,
O=C(Nc1cccnc1)c1c(O)c2cccc3c2n(c1=O)CC3 [MMV676395],> 100,
CCS(=O)(=O)N(Cc1ccco1)Cc1cc2ccc(C)cc2nc1O [MMV676398],,HepG2 PBox CC20 μMc (HepG2; [2]): >80 µM
c1coc(CNc2nc(N3CCCCC3)nc3ccccc23)c1 [MMV676401],18.6,
CC(C)n1ncc2c(C(=O)NCC(c3cccs3)N3CCOCC3)cc(-c3ccccc3)nc21 (stereo not drawn) [MMV676406],58,
N#Cc1nc(-c2ccccc2)oc1S(=O)(=O)c1ccc(Cl)cc1 [MMV676412],2.2,
Cc1ccc(NC(=O)CC2COc3ccccc3O2)cc1Cl (stereo not drawn) [MMV676431],66.7,
Cc1ccc2nc(Cl)c(CNCc3cccs3)cc2c1 [MMV676439],> 100,
O=C(NC1CCCCC1)N1CCN(Cc2ccc3c(c2)OCO3)CC1 [MMV676444],> 100,
CCCn1c(CNc2ccccc2O)nc2ccccc21 [MMV676445],84.1,
CCc1nc2ccccc2n1CC(O)COc1cc(C)ccc1Cl (stereo not drawn) [MMV676449],43.2,
CCOC(=O)c1cc(-c2csc(Nc3c(C)cc(C)cc3C)n2)on1 [MMV676461],24.4,
CCOc1ccc(OCC(=O)Nc2cc(C)cc(C)c2)cc1 [MMV676470],> 100,
COc1cccc(OC)c1C(=O)Nc1ccc(Cl)c(-c2nc3ccccc3s2)c1 [MMV676472],> 100,

Compound,CC50 (HepG2; [3]) [µM],also measured
Cc1cc(C)cc(COc2ccc3c(C)c(CCC(=O)O)c(=O)oc3c2C)c1 [MMV676476],> 100,
CCc1c(C)nc(-n2nc(C)cc2NC(=O)c2ccccc2SC)[nH]c1=O [MMV676477],1.3,
O=C(C1CCN(c2nnc(-n3cccc3)s2)CC1)N1CCC(Cc2ccccc2)CC1 [MMV676478],> 100,
COC(=O)c1c(NC(=O)c2cc3ccccc3oc2=O)sc2c1CCN(Cc1ccccc1)C2 [MMV676480],,HepG2 PBox CC20 μMc (HepG2; [2]): 12.3 µM
O=C(Nc1nnc(S)s1)c1cc(Br)ccc1Cl [MMV676492],,"HepG2 PBox CC20 μMc (HepG2; HepG2 CC20, ref Pathogen Box supporting information): >80 µM"
O=C(Nc1nnc(-c2ccc(Cl)s2)o1)c1ccc(Cl)s1 [MMV676501],50.1,
Cc1ccc2oc(-c3cc(NC(=O)Cc4ccccc4)ccc3Cl)nc2c1 [MMV676509],83.6,
O=C(c1cc2ccccc2o1)N1CCN(Cc2ccc3c(c2)OCO3)CC1 [MMV676520],> 100,
Nc1cccnc1Nc1ccc(Cl)cc1 [MMV676524],9,
COc1ccc(-c2cc(NC(=O)c3ccc(F)cc3Cl)ccc2OC)cc1 [MMV676526],> 100,
COCC(C)NC(=O)CSc1ncnc2sc(-c3ccccc3)cc12 (stereo not drawn) [MMV676536],,HepG2 PBox CC20 μMc (HepG2; [2]): >80 µM
O=C(NCCc1c[nH]c2ccccc12)c1cc2ccccc2oc1=O [MMV676539],> 100,
COc1ccc(Nc2ccccc2NC(=O)c2ccc(O)nc2)cc1 [MMV676554],42.5,
Cc1nnc(NCc2cccc(Cl)c2)c2ccccc12 [MMV676555],76,
CC1=NN(c2nc3ccccc3s2)C(=O)C1Cc1cccc2ccccc12 (stereo not drawn) [MMV676558],21.9,
COc1ccc(-c2nc(-c3cccc(NC(=O)Cc4ccc(F)cc4)c3)no2)cc1OC [MMV676571],> 100,
O=C(NC1=NCCS1)c1sc2cc(F)ccc2c1Cl [MMV676584],> 100,
Nc1c2c(nc3sc4c(c13)CCCC4)CCCC2 [MMV676588],34.9,
O=C(CCC1CCCCC1)Nc1cccc(-c2nnc(-c3ccco3)o2)c1 [MMV676589],> 100,
CCCn1nnc(NC(=O)COc2ccc(C3CCCCC3)cc2)n1 [MMV676597],> 100,
CC(C)(C)n1nc(Cc2cccc3ccccc23)c2c(N)ncnc21 [MMV676599],,HepG2 PBox CC20 (HepG2; [1]): 19 µM
CC1COC2(CCN(c3nc(=O)c4cc(C(F)(F)F)cc([N+](=O)[O-])c4s3)CC2)O1 (stereo not drawn) [MMV676603],> 100,

Compound,CC50 (HepG2; [3]) [µM],also measured
NC(=O)c1cc(-c2ccsc2)ccc1OCCOc1ccccc1 [MMV687138],> 100,
CCCCS(=O)(=O)Nc1ccc2cnn(C)c2c1 [MMV687145],> 100,
Cc1cc(C)c2cc(C(=O)NC3CCCCCCC3)[nH]c2c1 [MMV687146],> 100,
COc1ccc(Cn2cnc3c(-c4ccco4)nc(Cl)nc32)cc1 [MMV687170],> 100,
O=C(C1CCN(c2cc(-n3cccc3)ncn2)CC1)N1CCc2ccccc2C1 [MMV687172],> 100,
CCc1ccc([C@@H]2C[C@H](C(F)(F)F)n3ncc(C(=O)NCc4ccc(OC)cc4)c3N2)cc1 [MMV687180],50.6,
COc1ccc2nc(C)cc(OCC(=O)Nc3ccccc3OC)c2c1 [MMV687188],57.4,
COc1ccc2nc(C)cc(OCC(=O)NCc3ccccc3)c2c1 [MMV687189],> 100,
CC(C)(C(=O)Nc1ccc(F)cc1)n1cc(-c2ccccc2F)cn1 [MMV687239],> 100,
NC(=O)c1cc(Br)ccc1OCCOc1ccccc1 [MMV687243],> 100,
CCCCc1ccc(C(=O)Nc2nccc3ccccc23)nc1 [MMV687254],73.8,
CCc1nc2ccc(Cl)cn2c1C(=O)NCc1ccc(N2CCC(c3ccc(OC(F)(F)F)cc3)CC2)cc1 [MMV687696],> 100,
O=C(NCc1cc(Cl)cc(Cl)c1)c1c(C(F)(F)F)nc2ccccn12 [MMV687699],38.3,
Nc1ncnc2c1ncn2[C@@H]1O[C@H](COS(=O)(=O)NC(=O)c2ccccc2O)[C@@H](O)[C@H]1O [MMV687700],> 100,
O=C1O[C@@H](CO)CN1c1cc(F)c(C2=CCN(Cc3ccccc3)CC2)c(F)c1 [MMV687729],,CC50 (HepG2): 38.8 µM
CCCCOC(=O)Nc1cc2nc(C3CCCCC3)[nH]c2cc1N1CCCC1 [MMV687730],26.8,
Cc1cc(OCC(=O)NCc2ccccc2)c2cc(Br)ccc2n1 [MMV687747],31,
CC1(C)OB(O)c2ccc(C3=NOC(c4cc(Cl)c(F)c(Cl)c4)(C(F)(F)F)C3)cc21 (stereo not drawn) [MMV687775],,HepG2 PBox CC20 μMc (HepG2): 15.4 µM
O=C1O[C@@H](COc2ccon2)CN1c1cc(F)c(C2=CCN(Cc3ccccc3)CC2)c(F)c1 [MMV687813],,CC50 (HepG2): 30.4 µM
CCc1ccc(S(=O)(=O)Nc2cc(CN3CCN(CCC(C)C)CC3)ccc2C)cc1 [MMV688124],27.4,
CCCc1ccc(S(=O)(=O)Nc2ccc(CN3CCN(CC4CC4)CC3)cc2)cc1 [MMV688125],17.7,
c1ccc(Oc2ccc(-c3cncc(-c4ccc5[nH]ccc5c4)n3)cc2)cc1 [MMV688178],,HepG2 PBox CC20 μMc (HepG2; [2]): 25.7 µM

Compound,CC50 (HepG2; [3]) [µM],also measured
CC1(COc2ccc(N3CCC(Oc4ccc(OC(F)(F)F)cc4)CC3)cc2)Cn2cc([N+](=O)[O-])nc2O1 (stereo not drawn) [MMV688262],72.5,
COc1ccc(-c2cnc3cnc(-c4cccc(OC(C)C)c4)cn23)cc1 [MMV688270],,HepG2 PBox CC20 μMc (HepG2; [2]): 24.3 µM
COc1ccc(-c2nnc3ccc(-c4cccc(C(C)C)c4)cn23)cc1OC [MMV688313],,HepG2 PBox CC20 μMc (HepG2; [2]): 7.5 µM
CC(=O)NCC1CN(c2ccc(-c3ccc(CNCc4cn[nH]n4)cc3)c(F)c2)C(=O)O1 (stereo not drawn) [MMV688327],> 100,
COC(=O)c1ccc(F)cc1NS(=O)(=O)c1cccc(-c2cnn(Cc3ccccc3)c2)c1 [MMV688350],,CC50 (HepG2; [4]): 10 µM
O=C1[C@@H](Oc2ccccc2)[C@@H](c2ccc(Cl)cc2)N1CCn1cnc2c(NCc3ccccc3)ncnc21 [MMV688352],,CC50 (HepG2; [4]): 3 µM
CC(C)(C)OC(=O)N1CCN(c2nccc(-c3ccc(-c4ccc(Cl)cc4)s3)n2)CC1 [MMV688416],,CC50 (HepG2; [4]): > 50 µM
Cn1ccnc1CNCCS(=O)(=O)c1cccc(Nc2ccc(-c3cccc(F)c3)cn2)c1 [MMV688466],,CC50 (HepG2; [4]): 46.1 µM
CC(=O)NCC1CN(c2ccc(-c3ccc(CO)cc3)c(F)c2)C(=O)O1 (stereo not drawn) [MMV688508],,CC50 (HepG2; [4]): > 100 µM
CC(C)(C)C(=O)N(CCCCCCN1C[C@H](O)[C@@H](O)[C@H](O)[C@H]1CO)C1CCCCCC1 [MMV688543],,CC50 (HepG2; [4]): > 50 µM
Cc1nn(C(=O)Nc2cccc(C(F)(F)F)c2)c(C)c1Sc1ncccn1 [MMV688552],,HepG2 PBox CC20 μMc (HepG2; [2]): 30.7 µM
O=C(NCc1ccoc1)N1CCN(Cc2ccc3c(c2)OCO3)CC1 [MMV688553],,CC50 (HepG2; [4]): > 100 µM
CNc1snc(C)c1C(=O)NCCOc1ccc(OC)cc1 [MMV688554],,CC50 (HepG2; [4]): > 100 µM
O=C(NCc1ccco1)N1CCN(Cc2ccc(Cl)s2)CC1 [MMV688555],,CC50 (HepG2; [4]): > 100 µM
NCC(c1cccs1)S(=O)(=O)c1ccccc1 (stereo not drawn) [MMV688557],,CC50 (HepG2; [4]): 35.4 µM
Cc1ccccc1C(=O)N1N=C(Nc2ccccc2)SC1(C)C [MMV688771],,HepG2 PBox CC20 μMc (HepG2; [2]): 8 µM
OC[C@H]1O[C@@H](n2c3ccc(Cl)cc3c3c(-c4cc5ccccc5o4)ncnc32)C(O)[C@H]1O (stereo partly drawn) [MMV688921],,CC50 (HepG2; [4]): 10 µM
Nc1ncnc2c1ncn2C[C@@H](O)[C@@H](O)C(=O)O [MMV689255],,HepG2 PBox CC20 (HepG2; [1]): >80 µM
COc1cccn2c(C(=O)N3CCCCC3)c(C(F)(F)F)nc12 [MMV1110498],,HepG2 PBox CC20 μMc (HepG2; [2]): >80 µM
Cc1cc(OCC(=O)Nc2ccc(C(C)C)cc2)n(C)c(=O)c1C#N [MMV1198433],,HepG2 PBox CC20 μMc (HepG2; [2]): >80 µM
